Data as given in article PMC5503984, “Characterisation of preproendothelin-1 derived peptides identifies Endothelin-Like Domain Peptide as a modulator of Endothelin-1” (Scientific Reports, 2017).
Values belong to the compound of their own block, whether it stands above or below them. Where no end group is shown, it is not given here.

How the values were obtained:
[1] = test system: human aortic endothelial cells; assay: Secretion of ET-1 and proET-1 peptides from cultured human aortic endothelial cells (sandwich ELISA); format: cell-based; details: 6 h incubation
Source text: To confirm that proET-1 peptides are a reproducible index of ET-1 synthesis we compared the level of peptide production in cultured human aortic endothelial cells under conditions known to increase or decrease ET-1 expression. These experiments also confirmed that early passage human endothelial cells from primary cultures produce the same peptides with the stoichiometric relationship expected for proET-1 processing.
Figure 3 Correlation between secretion of ET-1 and proET-1 peptides from human aortic endothelial cells. Confluent cultures were incubated for 6 h in basal medium alone, or with 1 mM phosphoramidon (PHA), 2.5 or 5 µg/ml apple procyanidin pentamer (AP-2.5, AP-5), 5 µg/ml grape seed extract (GSE), 10 ng/ml TNFα or 1 ng/ml TGFß. All peptides were measured using specific sandwich ELISAs, and converted to % basal release (A,B,C,E and G). Results are mean ± SD from 4 experiments. Significant differences were determined by ANOVA with Bonferroni correction for multiple comparisons (*P = < 0.05; ***P = < 0.001). (D,F) and (H) show correlations between secretion of ET-1 and the respective proET-1 peptides under the different incubation conditions (excluding data obtained with phosporamidon).
Underlined sequences in Table 1 indicate peptide antigens used to raise specific antisera for sandwich immunoassays following previously described methodologies. Immunogens for ppET-1[93–109] and ppET-1[155–166] were prepared by conjugation via terminal Cys residues to maleimide groups on pre-treated carrier proteins. To enable conjugation of ppET-1[18–30], ppET-1[93–102] and ppET-1[169–186] by the maleimide methodology, synthetic peptides for these antigens included a C-terminal Cys-NH2 residue. Immunogens for ppET-1[42–50] and ppET-1[204–212] were prepared by glutaraldehyde conjugation to carrier protein[30]. For initial characterisation of conditioned media samples, rabbit antisera raised against ppET-1[42–50] and ppET-1[93–102] were used to establish radioimmunoassays for these peptide antigens. Subsequent investigations used sandwich ELISA methodologies with specific IgG purified from antisera using the respective peptide antigens (Table 1) coupled to SulfoLink Coupling Resin (Thermo Scientific/Pierce) or CNBr-Sepharose (GE Healthcare)[30]. Purified IgG for use as detection antibodies were biotinylated with NHS-LC-LC-biotin (Thermo Scientific/Pierce), and used for assay measurements with enhanced chemiluminescence.
EA.hy 926 and A549 cell lines were grown in Dulbecco’s modified Eagle medium with 10% fetal bovine serum at 37 °C in a humidified CO2 incubator (8% CO2, 92% air) as previously described, [30]. Human aortic endothelial cells were passaged cells from primary cultures grown in endothelial cell basal medium with growth supplement (Cell Applications Inc.), and used when confluent to compare secretion of proET-1 peptides with ET-1. Purified apple procyanidin pentamer was from Asahi Breweries (Moriya, Ibaraki 302–0106, Japan), grape seed extract was form Polyphenolics (Madera, CA), TNFα and TGFβ were from R&D Systems.

[2] = Clearance of proET-1 peptides after i.v. bolus in anaesthetised rats; format: in vivo, rat; details: rat; for plasma level at 30 s as % of administered peptide, relative to estimates for dilution in circulating blood: 1 nmol/kg i.v., hypothetical maximum plasma concentration 23–35 pmol/ml; for level at time molar at 0.5 min: iv, anaesthetised male Wistar rats, bolus 1 nmol/kg i.v. of each peptide as a combined solution in 0.9% saline/0.1% BSA, arterial plasma, Luminex multiplex immunoassay, mean ± SD, read-out: plasma level 30 s after injection
Protocol: To examine whether circulating half-lives influenced plasma levels of proET-1 peptides clearance rates were investigated in anaesthetised rats. […] Based on a circulating blood volume of 7.2 ± 0.3 ml per 100 g body weight, a mean weight of 345 ± 6 g and hematocrit of 40–60%, the hypothetical maximum plasma concentrations were 23–35 pmol/ml. However, the levels of NT-proET-1, ELDP and CT-proET-1 30 s after injection were 0.29 ± 0.02, 3.65 ± 0.23, and 11.74 ± 0.64 pmol/ml, respectively. Relative to estimates for dilution in circulating blood, these values represent ≈1%, 10–16%, and 34–51% of administered peptide for NT-proET-1, ELDP and CT-proET-1. Moreover, NT-proET-1 was almost completely cleared from the circulation in <5 min (estimated initial t½ < 20 s).
Figure 5 Comparison of clearance rates of NT-proET-1, ELDP and CT-proET-1 in anaesthetised rats. A bolus dose containing 1 nmol/kg of each proET-1 peptide as a combined solution prepared in 0.9% saline/0.1% BSA was administered i.v. and heparinised arterial blood samples (0.5 ml) were collected at 0.5, 1, 2, 5, 10, 20 and 40 min after administration of proET-1 peptides. NT-proET-1 (mauve circles), ELDP (red circles) and CT-proET-1 (blue circles) were measured by magnetic bead-based multiplex assays using Luminex methodology (values are mean ± SD, except where SD is less than the symbol size).
A multiplexed immunoassay system was used for simultaneous measurement of NT-proET-1, ELDP and CT-proET-1 in small volumes of rat plasma. Capture antibodies were conjugated to magnetic beads (region 45 – NT-proET-1, region 36 – ELDP, and region 27 – CT-proET-1) following standard protocols (Luminex Corporation). For assay capture antibody-coated magnetic beads were diluted as a premixed combination (10 µl/well) and incubated overnight at 4 °C on an orbital plate mixer with plasma (15 µl) and assay buffer (135 µl). For detection, beads were washed using a ring magnet plate washer before adding 25 µl of combined biotinylated detection antibodies and incubating for 2 h at room temperature on an orbital plate mixer.
All experiments were conducted according to the Animals (Scientific Procedures) Act 1986, UK, and approved by the UK Home Office. Clearance rates of proET-1 peptides and blood pressure effects of ELDP were determined in male Wistar rats (Charles River) anaesthetised with sodium thiopentone (120 mg/kg i.p.). Peptides were administered i.v. via a polyethylene catheter in the left femoral vein. Blood samples (0.5 ml) were collected from a catheter in the left carotid artery into chilled 1.5 ml microcentrifuge tubes containing 50 U/5 µl of heparin. Samples were centrifuged at 12,000 rpm for 2 min at 4 °C. Plasma (50 µl aliquots) samples were stored at −80 °C for subsequent analyses. Blood pressure and heart rate were recorded from the left carotid artery via a polyethylene catheter using Labchart 7.1 (AD Instruments Ltd).

[3] = ET-1; cited from earlier work
Source text: After intravenous injection NT-proET-1 was rapidly eliminated from the circulation (t½ < 20 s). Such rapid clearance indicates uptake or metabolism. ET-1 also has a short t½ (30–60 s)[42], [43], which is due primarily to clearance by endothelial ETB receptors in the pulmonary vasculature, [45], and to a lesser extent degradation by neutral endopeptidase 24.11, particularly in post capillary veins, [47]. In the absence of receptor-mediated clearance, the high disappearance rate of NT-proET-1 is likely due to peptidase activity in the circulation, particularly in the pulmonary circulatio ...

[4] = RP-HPLC elution position of synthetic proET-1 peptides; format: physicochemical; details: ACE-5 C4 300 Å, 5 µm, 4.6 × 250 mm, 1 ml/min, 0.1% TFA – 10% solvent B (80% CH3CN with 0.1% TFA) over 2 min, then 10–30% B over 50 min, 1 min fractions, absorbance at 280 nm and immunoassay
Protocol: Figure 2 Size exclusion chromatography of peptide precipitates from (A) EA.hy 926 and (B) A549 cell lines, (C) cation exchange chromatography of conditioned media from EA.hy 926, and HPLC characterisation of pro-ET-1 peptides from EA.hy 926 cells – (D) NT-proET-1, (E) ELDP and (F) CT-proET-1. (A) and (B) proendothelin-1 peptides from EA.hy 926 and A549 cell lines were subjected to size exclusion chromatography (column 1.6 × 100 cm, Sephadex G50 superfine) equilibrated at 4 °C with 0.1 M NaCl containing 0.01 M HCl. Fractions were subjected to immunoassay for ppET-1[42–50] (open circles) and ppET-1[93–102] (closed circles). Elution positions of adrenomedullin (ADM, M r 6029), big ET-1 (bET-1, M r 4283) and ET-1 (M r 2492) are indicated. […] ELDP (red columns) and CT-proET-1 (blue columns) were measured using immunoassays. […]
ProET-1 peptides were subjected to reverse phase HPLC on C4 silica (15 µm, 300 Å pore, 1 × 25 cm; Jupiter® Phenomenex) with gradient elution at 2 ml/min: 0.1% TFA – 15% solvent B (80% CH3CN with 0.1% TFA) over 2 min, followed by 15–60% B over 45 min. […] Synthetic peptides were used to characterise elution positions of NT-proET-1, ELDP and CT-proET-1 on this second HPLC system by monitoring absorbance at 280 nm and immunoassay of fractions. […]

[5] = cited from earlier work
Source text: The endothelin-like domain sequence is highly conserved with the first four Cys residues having identical spacing to ET-1 (Fig. 6)[18], [19]. There is also considerable sequence homology adjacent to the endothelin-like domain, which has been retained throughout mammalian evolution, such that human ppET-1[107–131] has 92% sequence identity with mouse ELDP and 88% with platypus over this sequence. […] However, choice of test conditions and pepti ...

[6] = 1 mM phosphoramidon, 4 experiments
[7] = 1 nmol/kg i.v. bolus, plasma sampled 0.5–40 min, two-phase clearance

Compound: CC(C)C[C@H](NP(=O)(O)O[C@@H]1O[C@@H](C)[C@H](O)[C@@H](O)[C@H]1O)C(=O)N[C@@H](Cc1c[nH]c2ccccc12)C(=O)O [phosphoramidon]
ET-1 synthesis [1, 6]: suppressed
proET-1 peptide production (NT-proET-1, ELDP, CT-proET-1) [1, 6]: no effect
increase in big ET-1 compared to basal ([1]; 1 mM phosphoramidon, confluent human aortic endothelial cells, mean ± SD from 4 experiments): 14.9 ± 2.8 fold

time to almost complete clearance from the circulation ([2]; 1 nmol/kg i.v. bolus): < 5 min
estimated initial t½ ([2]; 1 nmol/kg i.v. bolus, plasma): < 20 s
plasma level at 30 s as % of administered peptide, relative to estimates for dilution in circulating blood [2]: ≈ 1%
level at time molar at 0.5 min [2]: 0.29 ± 0.02 nM
Compound: APETAVLGAELSAVGENGGEKPTPSPPWRLRRS [NT-proET-1]

Compound: Apple procyanidin pentamer
synthesis/secretion of all peptides (ET-1, big ET-1 and proET-1 peptides) ([1]; apple procyanidin pentamer 2.5 or 5 µg/ml, grape seed extract 5 µg/ml, TGFß 1 ng/ml, % basal release, 4 experiments): reduced

Compound: Endothelin-1 [ET-1]
t½ in the circulation [3]: 30 to 60 s

elution position on RP-HPLC (fraction number) [4]: 28 fraction
estimated t½, phase 1 [2, 7]: 42 s
estimated t½, phase 2 [2, 7]: 438 s
plasma level at 30 s as % of administered peptide, relative to estimates for dilution in circulating blood [2]: 34–51%
level at time molar at 0.5 min [2]: 11.7 ± 0.64 nM
Compound: SSEEHLRQTRSETMRNSVKSSFHDPKLKGKPSRERYVTHNRAHW [CT-proET-1]

Compound: TNFα
ET-1 and ELDP in conditioned media ([1]; TNFα 10 ng/ml, 4 experiments): did not change
big ET-1 concentrations ([1]; TNFα 10 ng/ml, 4 experiments): increased
levels of NT-proET-1 and CT-proET-1 in conditioned media ([1]; TNFα 10 ng/ml, 4 experiments): significantly increased

Compound: ppET-1[110–130]: preproendothelin [110–130] fragment tested in an earlier study (QCASQKDKKCWNFCQAGKELR; UniProt P05305 110-130, looked up, fragment)
cardiovascular effects [5]: failed to show any cardiovascular effects
